From US20110212120A1, “Ykur polynucleotides and polypeptides” (VERNALIS (OXFORD) LIMITED, priority 2002, published 2011)

Molecular target: T1, YkuR protein (Bacillus subtilis, UniProt O34916)
T1 construct: the full length ykuR gene product could be separated from internally digested gene product; made in house; host or cells: E. coli BL21 (pET24a)
Assay: YkuR surrogate fluorometric assay (sodium hippurate substrate)
Assay type: biochemical, B. subtilis
Details: purified YkuR protein expressed in E. coli; phenanthroline added at increasing concentrations; FIG. 3
Method: A fluorometric assay for YkuR and its homologues has been developed using sodium hippurate (benzoyl glycine) as a substrate. Cleavage by YkuR releases free glycine which can be detected using F-phthaldialdehyde. The assay is performed in a total volume of 100 Fl per well in black 96 well microtitre plates. 40 Fl of YkuR protein 20 Fg/ml in 10 mM Hepes pH 6.8 containing 0.5 mM dithiothreitol and 10 mM potassium chloride) is added to the appropriate wells of a 96-well plate. Appropriate concentrations of test compounds dissolved in 20 Fl of 100% DMSO are added, followed by 40 Fl of hippuric acid (250 mM in 50 mM Hepes pH 6.8 containing 0.05% Brij 35). Control wells lack either enzyme or test compound. The reactions are incubated for 1 hour at 37 EC. Following incubation 100 Fl of OPA Reagent (20 mM F-phthaldialdehyde in 50 mM borate buffer pH 9.5 containing 0.1% $-mercaptoethanol) is added to each well. The fluorescence at 460 nm is measure with an SLT Fluostar fluorometer using 355 nm excitation.
Assay using purified YkuR protein expressed in E. coli as described above. Phenanthroline, a known inhibitor of metalloprotease enzyme activity, was added at increasing concentrations to inhibit metalloenzyme activity.

T1 sequence (O34916 whole entry): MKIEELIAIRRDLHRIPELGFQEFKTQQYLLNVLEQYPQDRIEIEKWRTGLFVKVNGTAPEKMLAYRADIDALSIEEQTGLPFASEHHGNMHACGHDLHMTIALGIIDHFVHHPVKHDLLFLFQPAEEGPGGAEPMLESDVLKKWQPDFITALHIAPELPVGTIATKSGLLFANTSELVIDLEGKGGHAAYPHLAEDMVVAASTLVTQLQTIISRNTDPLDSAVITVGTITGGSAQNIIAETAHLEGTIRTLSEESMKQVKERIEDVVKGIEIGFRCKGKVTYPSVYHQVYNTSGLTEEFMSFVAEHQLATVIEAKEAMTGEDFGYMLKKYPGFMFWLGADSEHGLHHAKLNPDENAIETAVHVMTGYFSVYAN

With c1cnc2c(c1)ccc1cccnc12 [Phenanthroline] the IC50 was 96 µM.
